Source: article PMC5786306, “An AKAP-Lbc-RhoA interaction inhibitor promotes the translocation of aquaporin-2 to the plasma membrane of renal collecting duct principal cells” (PLoS ONE, 2018)

Assays:
[1] = molecular target: T1, GST-RhoA (F25N), GDP- or GTPγS-bound (Homo sapiens, UniProt P61586, F25N); assay: Isothermal titration calorimetry (ITC) with GST-RhoA; type: binding
T1 construct: made in house
Description: ITC measurements were essentially carried out as previously described. The stabilizing RhoA mutant F25N [41] was purified as a GST-RhoA fusion in its GDP-bound form (final gel filtration purification step in 20 mM HEPES, pH 7.5, 150 mM NaCl, 2 mM DTT, 50 μM GDP). In order to exchange GDP against GTPγS, GST-RhoA loaded with GDP was incubated for 20 min in ITC nucleotide exchange buffer (50 mM HEPES, pH 7.5, 20 mM EDTA) at 25°C followed by three dilution and concentration steps in Amicon tubes (10,000 MWCO) using ITC dialysis buffer (50 mM HEPES, pH 7.4, 150 mM NaCl, 5 mM MgCl2, 2 mM β-mercaptoethanol). The nucleotide-loading state was confirmed by HPLC. All proteins used in ITC measurements were dialyzed overnight against ITC dialysis buffer. Protein concentrations were determined with NanoDrop ND-1000. GDP or GTPγS (final concentration 2 mM) and DMSO (2%) were added to the proteins prior to the ITC measurements. Scaff10-8 was dissolved in the same buffer (including 2% DMSO and 2 mM GDP or GTPγS). ITC measurements were performed on a VP-ITC (GE Healthcare, München, DE) at 15°C. Titrations were conducted using 14.8 μM Scaff10-8 in the cell and 235 μM (GST control), 222 μM (GST-RhoA, GDP-bound) or 210 μM (GST-RhoA, GTPγS-bound) in the syringe. The cell was stirred at 351 rpm and a total of 27 x 10 μl injections were added to the cell, separated by 240 s of equilibration. The data were fitted using the Microcal Origin software (version 7.0) and a one-site binding model. We consistently observed a binding number close to N = 0.5 (RhoA/Scaff10-8). This observation may be due to the binding of two molecules of Scaff10-8 per one molecule of GST-RhoA for both the GDP-bound and GTPγS-bound form of GST-RhoA, or due to some inaccuracy in the determination of protein or compound concentrations. The data were thus fitted using a fixed binding number of N = 0.5.

viability of cells = assay: CellTiter-Glo luminescent cell viability assay (ATP); type: cell-based; conditions: up to 100 μM, 1 and 24 h
Description: (A) Full length AKAP-Lbc (AKAP13) and the indicated GEFs were transiently expressed in HEK293 cells. […] (B) Scaff10 inhibits Gα12- but not Gαq-mediated RhoA activation. The indicated Gα12 and Gαq-mutants were transiently co-expressed with AKAP-Lbc and p63RhoGEF in HEK293 cells as indicated. The cells were left untreated or incubated with Scaff10 (50 μM). The fraction of active RhoA was determined using Rhotekin pulldown assays. Shown is one representative out of three experiments. All GEF constructs were in pCMV3a and Myc-tagged (30 ng per transfection). Expression of AKAP-Lbc, LARG and PDZ-RhoGEF is shown in Fig 7 of the main manuscript. […] Lower panel: Corresponding values of fluorescence to upper panel. […] Lower panel: Corresponding values of fluorescence to upper panel. (B) F norm = normalised fluorescence (fluoresence steady state/fluorescence initial state) indicated in ‰. […] The viability of the indicated cells was determined using a CellTiter-Glo®Luminescent Cell Viability Assay (Promega, Wisconsin, USA) according to the manufacturer's instructions. The assay is based on the quantification of ATP as an indicator of metabolically active cells. […] Viability was assessed after 1 and 24 h incubation with Scaff10-8 in the indicated concentrations. An equal volume of CellTiter-Glo Reagent was added, plates were shaken and luminescence monitored over time with the plates held at 22°C. […]

T1 sequence (P61586 whole entry F25N): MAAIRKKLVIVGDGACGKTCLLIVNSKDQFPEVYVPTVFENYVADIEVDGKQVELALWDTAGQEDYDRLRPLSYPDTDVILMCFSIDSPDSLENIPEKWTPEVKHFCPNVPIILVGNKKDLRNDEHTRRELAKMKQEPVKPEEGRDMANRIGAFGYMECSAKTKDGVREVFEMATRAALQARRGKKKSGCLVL

## COc1ccc(-c2coc3cc4oc(=O)c(CCC(=O)O)c(C)c4cc23)cc1 [Scaff10-8, 3-[3-(4-Methoxyphenyl)-5-methyl-7-oxo-furo[3,2-g]chromen-6-yl] propanoic acid]
[1]; 15°C, 2 mM GDP, fixed N = 0.5
  KD for GST-RhoA loaded with GDP: 20 ± 1 µM
[1]; 15°C, 2 mM GTPγS, fixed N = 0.5
  KD for GST-RhoA loaded with GTPγS: 38 ± 4 µM
[1]; GDP- and GTPγS-bound forms
  binding number N (RhoA/Scaff10-8): ~0.5
Viability of cells
  viability of cells (ATP quantitation): did not affect the viability
